± gives the expanded uncertainty stated by the source.
Assay: mn = molality of the nth substance listed, in mol/kg
Conditions: 101 kPa, Liquid; for viscosity: Capillary tube (Ostwald / Ubbelohde) method; for mass density: Vibrating tube method

CCCCCCCCCCCCCCCC[N+](C)(C)C.[Br-] [N,N,N-trimethyl-1-hexadecanaminium bromide] + O
viscosity (298.15 K, m1 = 0.001): 0.899 ± 0.009 mPa·s
viscosity (298.15 K, m1 = 0.003): 0.91 ± 0.009 mPa·s
viscosity (298.15 K, m1 = 0.005): 0.921 ± 0.009 mPa·s
mass density (298.15 K, m1 = 0.001): 997.2 ± 0.5 kg/m3
mass density (298.15 K, m1 = 0.003): 997.3 ± 0.5 kg/m3
mass density (298.15 K, m1 = 0.005): 997.4 ± 0.5 kg/m3
viscosity (308.15 K, m1 = 0.001): 0.744 ± 0.008 mPa·s
viscosity (308.15 K, m1 = 0.003): 0.752 ± 0.008 mPa·s
viscosity (308.15 K, m1 = 0.005): 0.76 ± 0.008 mPa·s
mass density (308.15 K, m1 = 0.001): 994.2 ± 0.5 kg/m3
mass density (308.15 K, m1 = 0.003): 994.3 ± 0.5 kg/m3
mass density (308.15 K, m1 = 0.005): 994.4 ± 0.5 kg/m3
viscosity (318.15 K, m1 = 0.001): 0.617 ± 0.008 mPa·s
viscosity (318.15 K, m1 = 0.003): 0.622 ± 0.008 mPa·s
viscosity (318.15 K, m1 = 0.005): 0.635 ± 0.008 mPa·s
mass density (318.15 K, m1 = 0.001): 990.4 ± 0.5 kg/m3
mass density (318.15 K, m1 = 0.003): 990.5 ± 0.5 kg/m3
mass density (318.15 K, m1 = 0.005): 990.6 ± 0.5 kg/m3
